Source: patent US20200399642A1, “METHODS AND COMPOSITIONS FOR TREATING AND PREVENTING METASTATIC TUMORS” (IMMUNE PHARMACEUTICALS, INC., priority 2017, published 2020)
Where two headings read alike, the source gives them in different places.

Experiments:
[1] = tested on: ROS production of WT lung cells; details: in vitro, HDC 10-1,000 μmol/L added 5 minutes before WKYMVm
Experimental: (§2) Superoxide anion production was determined by use of the isoluminol-electrogenerated chemiluminescence technique as described elsewhere. Briefly, single-cell suspensions of lungs were diluted to 10^7 cells/mL in Krebs-Ringer glucose buffer supplemented with isoluminol (10 mg/mL; Sigma-Aldrich) and horseradish peroxidase (HRP, 4 U/mL, Boehringer) and added to 96-well plates that were incubated at 37° C. Phorbol myristate acetate (PMA, 5×10^−8 M, Sigma-Aldrich) or the formyl peptide receptor agonist Trp-Lys-Tyr-Met-Val-D-Met (WKYMVm) (10^−5 M, Tocris Bioscience) were added for induction of ROS production. Light emission was recorded continuously using a FLUOstar Omega plate reader (BMG). In some experiments, HDC (10-1,000 μmol/L, final concentrations) was added 5 minutes prior to the addition of WKYMVm.

CD11b+Gr1+ myeloid cells = details: WT mice, HDC 24 hours before B16F10 inoculation
Experimental: (§3) For assessment of the impact of NOX2 inhibition on immune parameters during the early phase of tumor progression, mice received HDC at 1,500 μg/mouse or PBS (control) 1 day before the inoculation of B16F10 cells followed by dissection of lungs at 30 minutes or 24 hours after tumor cell inoculation as shown in FIG. 2A.
(§4) Lung tissues were dissociated into single cells by combining enzymatic degradation of extracellular matrix with mechanical dissociation using gentle MACS Technology (Miltenyi Biotech) based on instructions provided by the manufacturer.
The following fluorochrome-labeled antimouse mAbs were purchased from BD Biosciences: anti-CD45 (30-F11), anti-CD11c (HL3), anti-IaIe (2G9), anti-CD3 (145-2311), anti-CD4 (RM4-5), anti-CD8 (53-6.7), anti-NK1.1 (PK136), anti-CD19 (1D3), anti-CD11b (M1/70), anti-Gr1 (RB6-8C5), anti-CD40 (3/23), and anti-Ly6C (AL-21). Anti-CD33 (29A1.4) was from Ebiosciences; anti-F4/80 (BM8) and anti-CD69 (H1.2F3) were from BioLegend. LIVE/DEAD Fixable Yellow Dead Cell Stain Kit or DAPI (both from Invitrogen) were used as cell viability markers in flow cytometry analyses. A minimum of 100,000 gated live cells were collected on a four-laser BD LSRFortessa (405, 488, 532, and 640 nm). Data were analyzed using FACSDiva Version 8.0.1 software (BD Biosciences).

[2] = tested on: ROS formation of lung cell suspensions; details: mice pretreated with HDC the day before B16 inoculation; PMA; 30 minutes and 24 hours
Experimental: as §3, §4, §2

B16F10 cells = test: Lung metastasis after i.v. inoculation of B16F10 melanoma cells; type: in vivo, mouse; details: for number of lung metastases: 3 weeks
Experimental: (§1) C57BL/6 mice were obtained from The Charles River Laboratories. B6.129S6-Cybb^tm1Din(Nox2^−/− or Nox2-KO) mice that lack the myeloid gp91^phox subunit NOX2 and, thus, a functional ROS-forming NOX2 were obtained from The Jackson Laboratory. […] Naïve C57BL/6, Nox2-KO, and Ifng-KO mice (6-12 weeks of age) were treated intraperitoneally (i.p.) with PBS (control), HDC (Sigma, 1,500 μg/mouse), IL15 (0.04 μg/mouse), alone or combined, on the day before, the day after, and 3 days after intravenous (i.v.) inoculation of B16F10 cells (5×10^4-15×10^4 cells/mouse) or B16F1 cells (20×10^4-30×10^4 cells/mouse). Three weeks after tumor inoculation, mice were euthanized by cervical dislocation followed by harvesting of lungs and spleens. Lung metastasis was determined by counting visible pulmonary metastatic foci under a light microscope. The experimental design is outlined in FIG. 1A.
Gr1^+ cells were depleted by i.p. injections of 400 μg anti-Gr1 antibody (BioXCell, Clone RB6-8C5) 2 days before B16 cell inoculation. […] NK cells were depleted by i.p. injections of 250 μg anti-NK1.1 antibody (BioXCell, Clone PK136) 4 days and 2 days before B16F10 cell inoculation.
Spleens were harvested from WT C57BL/6 mice and single-cell suspensions were prepared. Splenocytes were enriched for NK cells by passage through nylon wool columns (Polysciences). NK cells were then negatively selected using an NK-cell isolation kit II (Miltenyi Biotech) according to the manufacturer's instructions to a purity of >70%. Five million enriched NK cells were injected i.v. 12 hours before inoculation of B16F10 cells. WT NK cells in Ifng^−/− mice were detected 2 days after adoptive transfer by collecting peripheral blood followed by DNA extraction and PCR. The primer pair used for detection of WT Ifng was 5′ […] 3′ (SEQ ID NO:02) and 5′ […] 3′ (SEQ ID NO:03). For detection of the disrupted IFNγ gene (Ifng−/−) the primer pair 5′ […] 3′ (SEQ ID NO:04) and 5′ […] 3′ (SEQ ID NO:05) was used.

lung NK cells = test: IFNγ production ex vivo in cocultures of lung cells and B16 cells (ELISA); design: species or system mouse; details: WT mice treated with HDC in vivo; lungs 30 minutes after B16F10 inoculation; coculture with B16 cells
Experimental: Mice were pretreated with HDC (1,500 μg) or PBS on the day before i.v. inoculation of B16F10 cells. Thirty minutes after tumor cell inoculation mice were sacrificed and single-cell lung cell suspensions were prepared. Lung cells were cocultured overnight with B16 cells (500,000 cells/mL) in flat bottom 96-well plates at effector:target cell ratios of 1:1 to 50:1. Supernatants were collected after 24 hours and the IFNγ content was determined by ELISA (Mouse IFNγ DuoSet ELISA, R&D Systems).

B16F1 cells = details: 200,000 cells in WT, 300,000 in Nox2-/- mice; 3 weeks
Experimental: as §1

NK cells = details: WT mice, 3 weeks after tumor cell inoculation; % of live CD45+ cells
Experimental: as §1

[3] = tested on: xenografted human melanoma cells; details: immunodeficient mice; cited from earlier work
murine melanoma cells = details: in vivo administration; cited from earlier work
melanoma = details: other melanoma models; cited from earlier work
[4] = tested on: B-RAF- and K-RAS-induced lung cancer; details: mouse models of B-RAF- and K-RAS-induced lung cancer; cited from earlier work
[5] = Nox2-KO mice, 150,000 B16F10 cells i.v., i.p. treatment days -1, 1, 3
[6] = WT mice, 100,000 B16F10 cells i.v., i.p. treatment days -1, 1, 3 (HDC 1,500 μg/mouse, IL15 0.04 μg/mouse)

Row | Molecule | subcutaneous growth of EL-4 thymoma tumors (EL-4 thymoma tumors; Nox2-KO mice) | subcutaneous growth of EL-4 thymoma tumors (EL-4 thymoma tumors; WT mice) | ROS formation from WT lung cells [1] | degree of influx of myeloid cells into lungs (CD11b+Gr1+ myeloid cells) | ROS formed ex vivo in lung cell suspensions [2] | lung metastasis (B16F10 cells; Gr1+-depleted WT mice, B16F10) | antimetastatic efficacy of HDC (B16F10 cells; Ifng-KO mice after adoptive transfer of IFNγ-producing WT NK cells) | antimetastatic efficacy of HDC (B16F10 cells; Ifng-KO mice after adoptive transfer of Ifng-KO NK cells) | melanoma metastasis (B16F10 cells; Ifng-KO mice, B16F10) | number of lung metastases (B16F10 cells; [5]) | number of lung metastases (B16F10 cells; [6]) | melanoma metastasis (B16F10 cells; animals depleted of NK cells (anti-NK1.1), WT and Nox2-/-, B16F10) | IFNγ produced ex vivo by lung NK cells (lung NK cells) | lung metastasis formation by B16F1 (B16F1 cells) | NK-cell counts in lungs (NK cells) | metastasis of xenografted human melanoma cells [3] | tumorigenicity of murine melanoma cells (murine melanoma cells) | lymph node metastasis (melanoma) | tumor progression [4]
1 | Cl.Cl.NCCc1c[nH]cn1 [HDC, histamine dihydrochloride] | but not in Nox2-KO mice | reduces the subcutaneous growth | dose-dependently suppressed | did not alter | reduced | did not affect metastasis | significantly restored the antimetastatic efficacy | but not the transfer of Ifng-KO NK cells | did not reduce melanoma metastasis | not observed | decreased the number of lung metastases | did not inhibit melanoma metastasis | higher concentrations of IFNγ | NOX2-dependent, antimetastatic effect | increased NK-cell counts in lungs | – | – | – | –
2 | CC(=O)N[C@@H](CS)C(=O)O [N-acetyl-cysteine] | – | – | – | – | – | – | – | – | – | – | – | – | – | – | – | accelerates the metastasis | reduces the tumorigenicity | enhances lymph node metastasis | accelerates tumor progression
3 | IL15: NK cell-activating cytokine IL15 | – | – | – | – | – | – | – | – | – | exerted antimetastatic activity | exerted antimetastatic activity | – | – | – | – | – | – | – | –
